# Experimental data as given in article PMC8643917, “982. Effect of Hepatic Impairment on the Safety and Pharmacokinetics of Rezafungin” (Open Forum Infectious Diseases, 2021).
# Where two headings read alike, the source gives them in different places. *1 amine or outer side, *2 acyl side, *3 side chain or, on linkers, in order; H or OH if unused. Where a SMILES comes first, the peptide text is derived from it. Bridges are numbered along the chain shown (N, C = ends). [ ]: non-standard residue; d: D form. The star is where a group is joined. Orn(4R-OH,5R-OCH2CH2NMe3+) = C[N+](C)(C)CCO[C@@H](N[*:3])[C@H](O)C[C@H](N[*:1])C(=O)[*:2]; pTerphenylCO(4''-OnC5H11) = CCCCCOc1ccc(-c2ccc(-c3ccc(C(=O)*)cc3)cc2)cc1; hTyr(3S-OH,4S-OH) = N[C@H](C(=O)O)[C@H](O)[C@@H](O)c1ccc(O)cc1; Pro(3S-OH,4S-Me) = C[C@H]1CN[C@H](C(=O)O)[C@H]1O; Hyp = O=C(O)[C@@H]1C[C@@H](O)CN1
# Tests used:
# [1] = Safety and tolerability of a single 400-mg IV infusion of rezafungin in subjects with severe hepatic impairment and matched healthy subjects; assay type: in vivo, human
# Description: (§1) Abstract Background Rezafungin (RZF) is a novel echinocandin antifungal being developed for treatment of candidemia and invasive candidiasis, and for prevention of invasive fungal diseases among immunosuppressed patients. In the Phase 2 and Phase 3 treatment trials of rezafungin compared with caspofungin (STRIVE [NCT02734862] and ReSTORE [NCT03667690], respectively), patients with severe hepatic impairment (HI) were not included due to lack of caspofungin data in this population. Rezafungin was previously evaluated in patients with moderate hepatic impairment. Here we report an open-label, single-dose study on rezafungin in patients with HI (Child-Pugh class C). Methods To investigate the safety, tolerability, and pharmacokinetics (PK) of RZF in subjects with HI and healthy subjects (HS), 8 subjects with HI and 8 HS matched for age, sex, and body mass index (BMI) were enrolled and received a single 400-mg intravenous 1-hour infusion of RZF. Plasma PK sampling was performed at various time points through 336 hours postdose. RZF PK parameters were derived using non-compartmental analysis. Safety was assessed throughout the study. Results The majority of the HI subjects were White (87.5%) and male (75%) while equal distribution between White and Black or African American was observed among HS (50%) and 75% were male. The mean age of HI subjects was 58 years (range, 41–68 years) and 56.6 years (range, 50–61 years) for the HS. Mean BMI was 29.7 kg/m^2 (range, 24.5–34.3 kg/m^2) for HI subjects and 29.7 kg/m^2 (range, 25.4–34.2 kg/m^2) for the HS. […] Three HI subjects had one adverse event (AE) each (bronchitis, worsening hepatic encephalopathy, hyponatremia), all moderate in severity; one HS had 1 AE of infusion site infiltration mild in severity. […] Table 1. Plasma Rezafungin PK Parameter Estimates in Subjects with Severe Hepatic Impairment or Normal Hepatic Function After a Single 400 mg IV Infusion of Rezafungin Figure 1. […] These findings support no RZF dose adjustment in subjects with severe hepatic impairment. Disclosures Voon Ong, PhD, Cidara Therapeutics (Employee, Shareholder) Taylor Sandison, MD, MPH, Cidara Therapeutics (Employee, Shareholder) Rebeca M. Melara, M.S., Altasciences (contract research organization) (Employee) Thomas C. Marbury, MD, Orlando Clinical Research Center (Employee, Other Financial or Material Support, Equity owner of Orlando Clinical Research Center) Alena Jandourek, MD, Cidara therapeutics (Consultant) Shawn Flanagan, PhD, Cidara Therapeutics (Employee, Shareholder)
# [2] = Plasma pharmacokinetics of rezafungin after a single 400-mg IV 1-hour infusion, open-label single-dose study, non-compartmental analysis; assay type: in vivo, human; details: for half-life: n = 8, plasma sampling through 336 hours postdose, non-compartmental analysis
# Description: as §1
# [3] = HI (Child-Pugh class C, n = 8) versus matched HS (n = 8), plasma, reduction
smiles,measurement,setting,value
"CCCCCOc1ccc(-c2ccc(-c3ccc(C(=O)N[C@H]4C[C@@H](O)[C@@H](OCC[N+](C)(C)C)NC(=O)[C@@H]5[C@@H](O)[C@@H](C)CN5C(=O)[C@H]([C@@H](C)O)NC(=O)[C@H]([C@H](O)[C@@H](O)c5ccc(O)cc5)NC(=O)[C@@H]5C[C@@H](O)CN5C(=O)[C@H]([C@@H](C)O)NC4=O)cc3)cc2)cc1 [RZF, Rezafungin] ({pTerphenylCO(4''-OnC5H11)}-[Orn(4R-OH,5R-OCH2CH2NMe3+)]T[Hyp][hTyr(3S-OH,4S-OH)]T[Pro(3S-OH,4S-Me)]; lactam 1-C)",adverse events considered related to RZF,"[1]; HI and HS subjects, all AEs resolved or resolving by the end of the study",No AEs were considered related to RZF
same,tolerability,[1]; HI subjects (Child-Pugh class C),well tolerated
same,number of subjects with an adverse event (AE),"[1]; HI subjects (n = 8), one AE each (bronchitis, worsening hepatic encephalopathy, hyponatremia), all moderate in severity",Three
same,number of subjects with an adverse event (AE),"[1]; healthy subjects (n = 8), 1 AE of infusion site infiltration, mild in severity",one
same,"RZF exposure (AUC) in subjects with HI, lower than that in HS",[2]; [3],~ 30%
same,"RZF exposure (Cmax) in subjects with HI, lower than that in HS",[2]; [3],~ 30%
same,half-life,"[2]; both sexes, human, subjects with severe hepatic impairment (HI, Child-Pugh class C), read-out: half-life (converted)",121 h
same,half-life,"[2]; healthy subjects (HS) matched for age, sex and BMI",124 h
